The compounds below were run on G. duodenalis BRIS/91/HEPU/1279 (assay: Primary Giardia screen at 10 µM (live-cell imaging, automated counting)). Settings: 24 h.
Format: cell-based, Giardia duodenalis
Method in brief: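 One concentration, 10 μM, is screened per compound in singlicate under microaerophilic gas (3% O2, 5% CO2, N2). Inhibition comes from automated image-based counts at 24 and 48 h, relative to 0.2% DMSO controls.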

In the case of `O=C(NC1CCCCCC1)c1cc2cn(C3CC3)cc2s1` [SN00802023], the “Average % Inhibition 24h” value is reported as 1.8%.

Same assay, conditions: 24 h, first singlicate assay

`O=C(NC1CCCCCC1)c1cc2cn(C3CC3)cc2s1` [SN00802023] was tested, and the “% Inhibition n=1 24h” value was 3.6%.

Same assay, conditions: 24 h, re-assessment

In the case of `O=C(NC1CCCCCC1)c1cc2cn(C3CC3)cc2s1` [SN00802023], the “% Inhibition n=2 24h” value is reported as 0.0%.

Same assay, conditions: 48 h

In the case of `O=C(NC1CCCCCC1)c1cc2cn(C3CC3)cc2s1` [SN00802023], the “Average % Inhibition 48h” value is reported as 46.9%.

Same assay, conditions: 48 h, first singlicate assay

First: Cc1nnc(-c2nnc(NCc3ccccc3)c3ccccc23)o1 [SN00800540]
Second: CCc1nnc(-c2nnc(NCc3ccc4c(c3)OCO4)c3ccccc23)o1 [SN00800558]
The “% Inhibition n=1 48h” value of the first is higher: 1.6% for the first, 0.0% for the second.

First: CCn1ccc(C(=O)Nc2ccc3c(c2)Sc2ncccc2C(=O)N3C)n1 [SN00800580]
Second: Cc1ccc(-n2nc3c(c2NC(=O)COc2ccccc2)CS(=O)(=O)C3)c(C)c1 [SN00802785]
The “% Inhibition n=1 48h” value of the first is higher: 19.0% for the first, 16.6% for the second.

Compared with `Cc1cc(NS(=O)(=O)c2cc(-c3[nH]ncc3C(=O)N3CCCC3)oc2C)ccc1F` [SN00800668], `O=C(c1cn2ccnc(-c3ccccc3)c2n1)N1CCCCC1` [SN00801929] is higher in “% Inhibition n=1 48h” value: 0.0% for the first, 30.6% for the second.

First: CCOC(=O)CCNC(=O)N1CCc2c(nc3cc(-c4ccccc4Cl)[nH]n3c2=O)C1 [SN00800844]
Second: COc1ccc(-c2cc3nc4c(c(=O)n3[nH]2)CNCC4)cc1 [SN00800876]
The “% Inhibition n=1 48h” value of the first is higher: 13.6% for the first, 0.0% for the second.

First: Cc1ccc(CNC(=O)N2CCN(C3=CC4=NCC(C)N4C=N3)CC2)cc1 (stereo not drawn) [SN00800883]
Second: Cc1ccc(CNC(=O)N2CCCN(C3CCN(CC4CC4)C3=O)CC2)cc1 (stereo not drawn) [SN00802402]
The “% Inhibition n=1 48h” value of the first is higher: 11.9% for the first, 5.4% for the second.

First: CCC1CN2C=NC(N3CCN(C(=O)CCc4ccccc4OC)CC3)=CC2=N1 (stereo not drawn) [SN00800900]
Second: CCCCN1CCN(C(=O)c2cc3c(=O)n(CC(C)C)c4ccccc4n3n2)CC1 [SN00802291]
The “% Inhibition n=1 48h” value of the first is higher: 25.4% for the first, 12.0% for the second.

First: O=C(N[C@H]1C[C@@H]2C[C@H]1N(C(=O)Nc1ccc3c(c1)CCC3)C2)c1ccccc1 [SN00800945]
Second: O=C(N[C@H]1C[C@@H]2C[C@H]1CN2S(=O)(=O)c1ccc2c(c1)CCCC2)c1cccnc1 [SN00800980]
The “% Inhibition n=1 48h” value of the first is higher: 6.6% for the first, 0.6% for the second.

Compared with `O=C(Cc1ccccc1F)N1CCC(Nc2cccnc2)C1` (stereo not drawn) [SN00801060], `O=C(c1cnccn1)N1CCCC1c1nc(-c2ccccc2)no1` (stereo not drawn) [SN00801675] is lower in “% Inhibition n=1 48h” value: 18.5% for the first, 0.0% for the second.

`CCn1nccc1C(=O)NC1CCN(c2nccnc2OC)C1` (stereo not drawn) [SN00801093] and `Cc1noc(COC2CCCN(C(=O)c3nn(C)c4ccccc34)C2)n1` (stereo not drawn) [SN00801154] are the same in “% Inhibition n=1 48h” value: 0.0% for the first, 0.0% for the second.

Compared with `O=C(c1cccc2[nH]ccc12)N1CCC(c2nc(-c3ccccc3)no2)C1` (stereo not drawn) [SN00801115], `COc1cccc(-c2noc(C3CCCCN3C(=O)Nc3ccc(Cl)cc3Cl)n2)c1` (stereo not drawn) [SN00802548] is lower in “% Inhibition n=1 48h” value: 23.0% for the first, 5.7% for the second.

Compared with `CCn1cc(CN2CCC(OCc3nc(C4CC4)no3)CC2)cn1` [SN00801138], `O=C(c1ccco1)N1CCC(OCc2nc(-c3ccncc3)no2)CC1` [SN00801147] is higher in “% Inhibition n=1 48h” value: 0.0% for the first, 18.6% for the second.

`COc1cccc(C(=O)N(CC2CCOC2)C2CC2)c1` (stereo not drawn) [SN00801182] and `CN(CC1CCOC1)C(=O)Cc1ccccc1` (stereo not drawn) [SN00801209] are the same in “% Inhibition n=1 48h” value: 0.0% for the first, 0.0% for the second.

Compared with `CN(C)[C@@H]1CN(C(=O)c2ccco2)CC[C@]1(O)c1ccccc1` [SN00801222], `CC(C)(C)c1ccc(C(=O)N2CCC3(CC2)NC(c2ccccc2)=NO3)cc1` [SN00801741] is lower in “% Inhibition n=1 48h” value: 3.1% for the first, 0.0% for the second.

Going from `CN(C)CC1CN(S(=O)(=O)c2ccccc2)CC12CCOCC2` (stereo not drawn) [SN00801264] to `CN(C)CC1CN(S(=O)(=O)C2CC2)CC12CCOCC2` (stereo not drawn) [SN00801268], the “% Inhibition n=1 48h” value rises from 0.0% to 16.1%.

First: CN(C)[C@@H]1CN(Cc2ccc3[nH]ccc3c2)CC[C@H]1CO [SN00801277]
Second: O=C(Cn1cnc2c(nnn2Cc2ccc(Cl)cc2)c1=O)NC1CCCC1 [SN00802568]
The “% Inhibition n=1 48h” value of the first is lower: 6.2% for the first, 16.4% for the second.

Going from `CN1C(=O)CC[C@]2(CNC(=O)C3(c4ccccc4)CC3)CCC[C@@H]12` [SN00801306] to `COCCN1CCC(N2CCCN(C(=O)NCCc3ccccc3)CC2)C1=O` (stereo not drawn) [SN00802413], the “% Inhibition n=1 48h” value falls from 21.4% to 1.7%.

Compared with `COCC1CN(C(=O)c2ccc(OC)cc2)CC12CCOCC2` (stereo not drawn) [SN00801332], `CCc1ccc(C(=O)N2CCC(Cc3nc(-c4ccc(OC)cc4)no3)CC2)cc1` [SN00801692] is lower in “% Inhibition n=1 48h” value: 24.3% for the first, 0.0% for the second.

Going from `CC1(c2nc(C3CC3)no2)CCCN(C(=O)CCC2CCCC2)C1` (stereo not drawn) [SN00801392] to `CN1CCC(OC2CCN(C(=O)CC3CCCC3)CC2)CC1` [SN00801545], the “% Inhibition n=1 48h” value rises from 3.8% to 26.4%.

Compared with `COc1ccc(C2CCC(=O)N2CCN2CCOCC2)cc1` (stereo not drawn) [SN00801430], `COc1ccc(C2(C(=O)N3CCC(Cc4nc(-c5ccc(F)cc5)no4)CC3)CC2)cc1` [SN00801690] is lower in “% Inhibition n=1 48h” value: 34.6% for the first, 0.0% for the second.

`CCC(=O)N1CCc2c(sc3ncnc(N(C)C4CCN(C)CC4)c23)C1` [SN00801485] and `Cc1nc(C)c2c(n1)N(CCN(C)C1CCCCC1)C(=O)CC2` [SN00802202] are the same in “% Inhibition n=1 48h” value: 0.0% for the first, 0.0% for the second.

Compared with `CC(C)S(=O)(=O)N1CCC(N(C)C2CCOCC2)CC1` [SN00801518], `CCC(=O)N1CC(C(=O)NCCN(C)C)C2(CCOCC2)C1` (stereo not drawn) [SN00802145] is higher in “% Inhibition n=1 48h” value: 0.0% for the first, 13.1% for the second.

Going from `CNC(=O)N1CCC(C2CCN(C(=O)c3ccncc3)CC2)C1` (stereo not drawn) [SN00801593] to `Cc1ccccc1C(=O)N[C@@H]1CCCC[C@H]1NC(=O)C1CCCN(C(=O)c2ccc(Cl)cc2)C1` (stereo partly drawn) [SN00802559], the “% Inhibition n=1 48h” value falls from 4.5% to 3.9%.

Compared with `CCc1ccc(NC(=O)Cn2nc3n(c2=O)CCCC3)cc1` [SN00801641], `O=C(Cn1nc2n(c1=O)CCCC2)NCc1ccccc1Br` [SN00801654] is lower in “% Inhibition n=1 48h” value: 9.1% for the first, 6.0% for the second.

Going from `O=C1CC(c2noc(-c3ccc(F)cc3)n2)CN1c1ccc(F)cc1` (stereo not drawn) [SN00801778] to `COc1ccc(N2CC(c3noc(-c4ccc(C(C)(C)C)cc4)n3)CC2=O)cc1` (stereo not drawn) [SN00801793], the “% Inhibition n=1 48h” value falls from 9.0% to 0.0%.

Going from `O=C(Nc1ccc(N2CCN(C3CCCCC3)C2=O)nc1)c1ccc(Cl)s1` [SN00801852] to `O=C(NC1CCCCCC1)c1cc2cn(C3CC3)cc2s1` [SN00802023], the “% Inhibition n=1 48h” value rises from 26.3% to 43.4%.

Compared with `Cc1scc2nc(C(N)=O)nc(N3CCCC3)c12` [SN00801956], `Cc1nc(-c2ccncc2)nc2c1CCC(=O)N2CCC1=CCCCC1` [SN00802205] is lower in “% Inhibition n=1 48h” value: 22.6% for the first, 0.0% for the second.

Compared with `COCCn1c(C2CCN(S(=O)(=O)c3cccs3)C2)nc2cccnc21` (stereo not drawn) [SN00802004], `CCC1(N2CCN(C)CC2)CCN(S(=O)(=O)c2ccccc2)C1` (stereo not drawn) [SN00802274] is lower in “% Inhibition n=1 48h” value: 5.3% for the first, 2.6% for the second.

Going from `CC(C)n1cc2cc(C(=O)NCCCN3CCCc4ccccc43)sc2c1` [SN00802034] to `CCn1nc(C(=O)NCCOc2ccccc2)cc1-c1cc(C)sc1C` [SN00802783], the “% Inhibition n=1 48h” value falls from 3.6% to 0.0%.

First: c1cnc(-c2nnc(C3CCCNC3)[nH]2)cn1 (stereo not drawn) [SN00802129]
Second: Cc1oc(C2CCC2)nc1C(=O)NC(C)c1ccccn1 (stereo not drawn) [SN00802442]
The “% Inhibition n=1 48h” value of the first is lower: 2.3% for the first, 17.0% for the second.

Going from `CCNC(=O)c1c(C)oc2c1CNCC2` [SN00802246] to `CCOc1ccccc1CNC(=O)c1nc(C(C)C)oc1C` [SN00802425], the “% Inhibition n=1 48h” value rises from 10.3% to 24.0%.

Compared with `COc1ccc(-c2ccnc3c(C(=O)NCc4ccc5c(c4)OCO5)cnn23)cc1OC` [SN00802455], `CCOC(=O)CC(=O)Nc1ccc(-c2onc3c2CCc2cc(OC)ccc2-3)cc1` [SN00802675] is lower in “% Inhibition n=1 48h” value: 16.8% for the first, 5.3% for the second.

First: CCN(CC)CCCC(C)NC(=O)c1cc(-c2ccco2)on1 (stereo not drawn) [SN00802522]
Second: CCn1nc(C(=O)NCc2ccccc2F)cc1-c1cc(C)sc1C [SN00802641]
The “% Inhibition n=1 48h” value of the first is lower: 3.7% for the first, 9.7% for the second.

First: COC(=O)C(C)n1cnc2c(nnn2Cc2ccc(C)cc2)c1=O (stereo not drawn) [SN00802538]
Second: COC(=O)C(C)n1cnc2c(nnn2Cc2ccccc2F)c1=O (stereo not drawn) [SN00802558]
The “% Inhibition n=1 48h” value of the first is lower: 3.2% for the first, 11.4% for the second.

Going from `CCCN(C)C(=O)Cn1c(=O)n(-c2ccc(F)cc2)c(=O)c2ccccc21` [SN00802614] to `O=c1c2c(ncn2Cc2ccc(F)cc2)n(-c2ccccc2)c(=O)n1C1CCCC1` [SN00802718], the “% Inhibition n=1 48h” value falls from 32.9% to 6.1%.

Compared with `O=C(c1ccc(F)cc1)N1CCc2[nH]nc(C(=O)N3CCN(c4ccc(F)cc4)CC3)c2C1` [SN00802630], `COc1ccc(-n2nc3c(c2NC(=O)c2ccc([N+](=O)[O-])cc2)CS(=O)(=O)C3)cc1` [SN00802781] is higher in “% Inhibition n=1 48h” value: 0.9% for the first, 12.4% for the second.

Going from `Cc1ccccc1-n1nc(C(=O)N(C)Cc2ccco2)nc1CCc1ccccc1` [SN00802642] to `CC(C)(C)c1cc2nc(-c3ccccc3)cc(C(=O)NC3CCCCNC3=O)n2n1` (stereo not drawn) [SN00802787], the “% Inhibition n=1 48h” value falls from 5.4% to 0.0%.

`Cc1cccc2c1NC1(CCN(S(=O)(=O)c3ccc(C(C)(C)C)cc3)CC1)NC2=O` [SN00802737] was tested, and the “% Inhibition n=1 48h” value was 13.3%.

Same assay, conditions: 48 h, re-assessment

In the case of `O=C(NC1CCCCCC1)c1cc2cn(C3CC3)cc2s1` [SN00802023], the “% Inhibition n=2 48h” value is reported as 50.4%.

From publication PMC9775191, “A Subset Screen of the Compounds Australia Scaffold Library Identifies 7-Acylaminodibenzoxazepinones as Potent and Selective Hits for Anti-Giardia Drug Discovery” (Biomedicines, 2022)
